In patent publication US9085786B2, “Process for the production of polyamines” (BASF SE, priority 2009, dated 2015):

T1: AOX (alcohol oxidase) (Komagataella phaffii, UniProt P04842)
T1 sequence (P04842 1-663): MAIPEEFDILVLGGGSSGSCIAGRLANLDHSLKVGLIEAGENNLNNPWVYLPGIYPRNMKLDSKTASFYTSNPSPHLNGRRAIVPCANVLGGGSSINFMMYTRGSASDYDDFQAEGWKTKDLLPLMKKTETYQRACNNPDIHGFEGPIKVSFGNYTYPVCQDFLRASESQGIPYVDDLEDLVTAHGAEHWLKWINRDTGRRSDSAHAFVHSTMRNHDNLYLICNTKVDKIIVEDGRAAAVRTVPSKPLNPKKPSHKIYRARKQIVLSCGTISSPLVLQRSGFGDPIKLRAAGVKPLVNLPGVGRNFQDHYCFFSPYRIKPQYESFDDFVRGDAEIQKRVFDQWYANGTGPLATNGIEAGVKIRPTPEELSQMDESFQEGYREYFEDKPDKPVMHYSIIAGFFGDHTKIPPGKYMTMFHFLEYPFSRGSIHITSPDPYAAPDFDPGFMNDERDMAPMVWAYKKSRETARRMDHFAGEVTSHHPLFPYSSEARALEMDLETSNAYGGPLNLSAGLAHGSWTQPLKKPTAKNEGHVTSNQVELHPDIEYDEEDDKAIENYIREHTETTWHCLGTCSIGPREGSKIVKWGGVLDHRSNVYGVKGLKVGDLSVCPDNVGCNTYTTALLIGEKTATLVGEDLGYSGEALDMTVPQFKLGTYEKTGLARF


Tests used:
AOX (alcohol oxidase) = biological target: T1, AOX (alcohol oxidase); type: biochemical; conditions: for Vmax / Relative activity: pH 7.0, 100 mM MOPS-buffer; for Vmax: compound as substrate; for Relative activity: ethanol = 100
Excerpt: In the AOX approach cofactor regeneration is not required. The reaction is further driven by the Catalase-catalyzed decomposition of hydrogen peroxide. […]
The enzyme was obtained from commercially available from Sigma Aldrich.
Reaction followed […] preference of one enantiomer over the other as substrate, as defined by the division of the specificity constants. The specificity constant is defined as kcat/Km.

[1] = tested on: HLADH (Horse Liver Alcohol Dehydrogenase); experiment: Kinetic constants for HLADH, spectrophotometric assay of NADH formation at 340 nm; type: biochemical, Equus caballus; conditions: for Vmax / Relative activity / Km: pH 9.1, 100 mM CHES-buffer; for Vmax / Km: compound as substrate; for Relative activity: ethanol = 100; for E-value: pH 9.1, preference of one enantiomer over the other, ratio of specificity constants kcat/Km
Excerpt: In the HLADH approach cofactor regeneration is accomplished by the use of vinyl acetate. Vinyl acetate rapidly hydrolyzes at pH 9.1, decomposing into acetic acid and acetic aldehyde. The aldehyde can be reduced by HLADH into ethanol, thereby forming NAD^+ from NADH. Unreacted acetic aldehyde can be removed by bubbling N2 after deactivating the enzyme with EDTA or H2O2. For the alcohol dehydrogenase HLADH the reaction was spectrophotometrically followed by the formation of NADH at 340 nm. Different concentrations of the various amino alcohols were used to obtain the Michaelis-Menten kinetic constants.
This reaction was performed at pH 9.1. The enzyme was obtained from commercially available from Sigma Aldrich.
Reaction catalysed by HLADH was followed spectrophotometrically at 340 nm, by the formation of NADH.

[2] = substrate: CCO; experiment: purified protein, by the assay type; conditions: other: AOX, pH 7.0, 100 mM MOPS-buffer, compound as substrate

Row | Molecule | Catalysis of the reaction and appearance of aldehyde (AOX (alcohol oxidase); ABTS replaced by pyrogallol or purpald, rates not reproducible) | Vmax (AOX (alcohol oxidase)) | Relative activity (AOX (alcohol oxidase)) [%] | E-value (AOX (alcohol oxidase); pH 7.0, preference of one enantiomer over the other, ratio of specificity constants kcat/Km) | Vmax [1] [µmol/min/mg] | Relative activity [1] [%] | E-value [1] | Km [1] [mM] | Km [2] [mM] | Vmax [2] [µmol/min/mg]
1 | NCC(O)c1ccccc1 (stereo not drawn) [2-Amino-1-phenyl ethanol] | the enzyme was catalysing the reaction and the appearance of aldehyde |  |  |  |  |  |  |  |  | 
2 | C[C@@H](N)CO [R-2-Amino-propan-1-ol] |  | 0.10 µmol/min/mg | 0.88 | 3.6 | <0.0007 | ~0 | >300 |  |  | 
3 | CC(O)CN (racemic) [1-Amino-propan-2-ol (rac), 1-Amino-propan-2-ol] |  |  | 0 |  | 0 | 0 |  |  |  | 
4 | NC[C@H](O)c1ccccc1 [R-2-Amino-1-phenyl-ethanol] |  |  |  |  | <0.002 | ~0 | >100 |  |  | 
5 | NCCCO [3-Amino-propan-1-ol] |  | 0.021 µmol/min/mg | 0.18 |  | 0.17 | 11 |  | 13 |  | 
6 | CCO [Ethanol, reference compound] |  |  | 100 |  | 1.5 | 100 |  | 0.6 |  | 
7 | C[C@H](N)CO [S-2-Amino-propan-1-ol] |  | 0.37 µmol/min/mg | 3.2 |  | 0.21 | 14 |  | 6.3 |  | 
8 | NCCO [2-Amino-ethanol] |  | Very low | ~0 |  | <0.005 | ~0 |  |  |  | 
9 | NC[C@@H](O)c1ccccc1 [S-2-Amino-1-phenyl-ethanol] |  |  |  |  | 0.21 | 14 |  | 6.2 |  | 
10 | AOX (alcohol oxidase) (Komagataella phaffii GS115) (protein) MAIPEEFDILVLGGGSSGSCIAGRLANLDHSLKVGLIEAGENNLNNPWVYLPGIYPRNMKLDSKTASFYTSNPSPHLNGRRAIVPCANVLGGGSSINFMMYTRGSASDYDDFQAEGWKTKDLLPLMKKTETYQRACNNPDIHGFEGPIKVSFGNYTYPVCQDFLRASESQGIPYVDDLEDLVTAHGAEHWLKWINRDTGRRSDSAHAFVHSTMRNHDNLYLICNTKVDKIIVEDGRAAAVRTVPSKPLNPKKPSHKIYRARKQIVLSCGTISSPLVLQRSGFGDPIKLRAAGVKPLVNLPGVGRNFQDHYCFFSPYRIKPQYESFDDFVRGDAEIQKRVFDQWYANGTGPLATNGIEAGVKIRPTPEELSQMDESFQEGYREYFEDKPDKPVMHYSIIAGFFGDHTKIPPGKYMTMFHFLEYPFSRGSIHITSPDPYAAPDFDPGFMNDERDMAPMVWAYKKSRETARRMDHFAGEVTSHHPLFPYSSEARALEMDLETSNAYGGPLNLSAGLAHGSWTQPLKKPTAKNEGHVTSNQVELHPDIEYDEEDDKAIENYIREHTETTWHCLGTCSIGPREGSKIVKWGGVLDHRSNVYGVKGLKVGDLSVCPDNVGCNTYTTALLIGEKTATLVGEDLGYSGEALDMTVPQFKLGTYEKTGLARF |  |  |  |  |  |  |  |  | 1.3 | 12
